Holding throughout (type): cell-based
The subject of one assay is Botrytis cinerea.
A further assay has as its system Phytophthora infestans. Kind of assay: microbe, parasite or virus in culture. The conditions noted are these: read-out: Fungicidal activity IC50, P. infestans.
The subject of a further assay is Stagonospora nodorum. Kind of assay: microbe, parasite or virus in culture.
In a further assay the test system is Septoria tritici. In words: microbe, parasite or virus in culture. The following applies: for IC50: Zymoseptoria tritici, read-out: Fungicidal activity IC50, S. tritici.
The subject of another assay is Monilinia fructicola. Kind of assay: microbe, parasite or virus in culture. The following applies: read-out: Fungicidal activity IC50, M. fructicola.

Consider `OC(c1cccnc1)c1c(-c2ccc(F)cc2F)csc1-c1ccc(Cl)cc1` (stereo not shown) [Compound 6, 2-(4-Chlorophenyl)-4-(2,4-difluorophenyl)-3-[(3-pyridyl)hydroxymethyl]-thiophene], for which the “Fungicidal activity IC50, B. cinerea” value with Botrytis cinerea is recorded as “B (d)”. The IC50 with Phytophthora infestans was > 100000 nM; in the assay on Monilinia fructicola, < 100 nM. Also, in the assay with Stagonospora nodorum, the “Fungicidal activity IC50, S. nodorum” value was “B (c)”. For the same compound, in the assay with Septoria tritici, the “Fungicidal activity IC50, S. tritici” value is “A (b)”.
For the compound `OC(c1cccnc1)c1c(-c2cccs2)csc1-c1ccc(Cl)cc1` (stereo not shown) [Compound 12, 2-(4-Chlorophenyl)-3-[(3-pyridyl)hydroxymethyl]-4-(2-thienyl)thiophene], the “Fungicidal activity IC50, B. cinerea” value with Botrytis cinerea is “A (d)”. In addition, the concentration for half-maximal inhibition (IC50) was > 100000 nM in the assay with Phytophthora infestans, < 100 nM in the assay on Septoria tritici and < 100 nM in the assay on Monilinia fructicola. Moreover, the “Fungicidal activity IC50, S. nodorum” value in the assay with Stagonospora nodorum is listed as “A (d)”.
`OC(c1cccnc1)c1c(-c2ccc(Cl)cc2)csc1-c1cccs1` (stereo not shown) [Compound 9, 4-(4-Chlorophenyl)-3-[(3-pyridyl)hydroxymethyl]-2-(2-thienyl)thiophene]: the “Fungicidal activity IC50, B. cinerea” value in the assay on Botrytis cinerea was “B (d)”. Also, the figures for the IC50 in the assay with Phytophthora infestans and in the assay with Monilinia fructicola were > 100000 nM and < 100 nM, respectively. The “Fungicidal activity IC50, S. nodorum” value in the assay on Stagonospora nodorum is “A (d)”. The “Fungicidal activity IC50, S. tritici” value in the assay with Septoria tritici was “A (c)”.
As to `Cc1ccc(-c2csc(-c3ccc(F)cc3F)c2C(O)c2cccnc2)s1` (stereo not shown) [Compound 14, 2-(2,4-Difluorophenyl)-4-(5-methyl-2-thienyl)-3-[(3-pyridyl)hydroxymethyl]-thiophene], in the assay on Botrytis cinerea, the “Fungicidal activity IC50, B. cinerea” value was “B (d)”. Moreover, the figures for the IC50 in the assay on Phytophthora infestans, with Septoria tritici and in the assay on Monilinia fructicola were > 100000 nM, < 100 nM and < 100 nM, respectively. The “Fungicidal activity IC50, S. nodorum” value in the assay on Stagonospora nodorum was “A (b)”.
Regarding `OC(c1cccnc1)c1c(-c2ccc(Cl)cc2)csc1-c1ccc(Cl)cc1` (stereo not shown) [Compound 8, 2,4-Bis-(4-chlorophenyl)-3-[(3-pyridyl)hydroxymethyl]-thiophene], the IC50 with Phytophthora infestans was > 100000 nM. Also, the “Fungicidal activity IC50, S. nodorum” value in the assay with Stagonospora nodorum is “B (d)”. In addition, the “Fungicidal activity IC50, S. tritici” value in the assay on Septoria tritici is listed as “A (d)”.
Take `OC(c1cccnc1)c1c(-c2ccc(Cl)cc2)csc1-c1ccc(Cl)s1` (stereo not shown) [Compound 4, 4-(4-Chlorophenyl)-2-(5-chloro-2-thienyl)-3-[(3-pyridyl)hydroxymethyl]-thiophene]: the “Fungicidal activity IC50, B. cinerea” value in the assay with Botrytis cinerea is “B (c)”. Besides, the IC50 in the assay on Phytophthora infestans was > 100000 nM; in the assay on Stagonospora nodorum (Parastagonospora nodorum, read-out: Fungicidal activity IC50, S. nodorum), 110 to 1000 nM; with Monilinia fructicola it was < 100 nM. Further, in the assay on Septoria tritici, the “Fungicidal activity IC50, S. tritici” value is on record as “A (d)”.

What is called IC50 is the concentration that gives 50% inhibition.

The record behind these values is patent publication US20070244162A1 (priority 2005, published 2007).
